For orientation: IC50 means the concentration that gives 50% inhibition.

IC50 data for 39 compounds are collected here from patent publication US8481750B2 (Boehringer Ingelheim International GmbH, priority 2009, dated 2013).

Molecules are shown by their SMILES.

In the experiment the target is LFA-1 binding to ICAM-1 (Homo sapiens, UniProt P05107+P20701). The experiment is described as follows: Inhibition of LFA-1 binding to ICAM-1 (LFA-1/Biotin-sICAM-1 AlphaScreen molecular assay). The note with it: highest compound concentration 1 μM in 1% DMSO, 37° C., 90 minutes. An excerpt: Assay to Determine Inhibition of LFA-1 Binding to ICAM-1
LFA-1 binding to ICAM-1, sequence (P20701 26-1170): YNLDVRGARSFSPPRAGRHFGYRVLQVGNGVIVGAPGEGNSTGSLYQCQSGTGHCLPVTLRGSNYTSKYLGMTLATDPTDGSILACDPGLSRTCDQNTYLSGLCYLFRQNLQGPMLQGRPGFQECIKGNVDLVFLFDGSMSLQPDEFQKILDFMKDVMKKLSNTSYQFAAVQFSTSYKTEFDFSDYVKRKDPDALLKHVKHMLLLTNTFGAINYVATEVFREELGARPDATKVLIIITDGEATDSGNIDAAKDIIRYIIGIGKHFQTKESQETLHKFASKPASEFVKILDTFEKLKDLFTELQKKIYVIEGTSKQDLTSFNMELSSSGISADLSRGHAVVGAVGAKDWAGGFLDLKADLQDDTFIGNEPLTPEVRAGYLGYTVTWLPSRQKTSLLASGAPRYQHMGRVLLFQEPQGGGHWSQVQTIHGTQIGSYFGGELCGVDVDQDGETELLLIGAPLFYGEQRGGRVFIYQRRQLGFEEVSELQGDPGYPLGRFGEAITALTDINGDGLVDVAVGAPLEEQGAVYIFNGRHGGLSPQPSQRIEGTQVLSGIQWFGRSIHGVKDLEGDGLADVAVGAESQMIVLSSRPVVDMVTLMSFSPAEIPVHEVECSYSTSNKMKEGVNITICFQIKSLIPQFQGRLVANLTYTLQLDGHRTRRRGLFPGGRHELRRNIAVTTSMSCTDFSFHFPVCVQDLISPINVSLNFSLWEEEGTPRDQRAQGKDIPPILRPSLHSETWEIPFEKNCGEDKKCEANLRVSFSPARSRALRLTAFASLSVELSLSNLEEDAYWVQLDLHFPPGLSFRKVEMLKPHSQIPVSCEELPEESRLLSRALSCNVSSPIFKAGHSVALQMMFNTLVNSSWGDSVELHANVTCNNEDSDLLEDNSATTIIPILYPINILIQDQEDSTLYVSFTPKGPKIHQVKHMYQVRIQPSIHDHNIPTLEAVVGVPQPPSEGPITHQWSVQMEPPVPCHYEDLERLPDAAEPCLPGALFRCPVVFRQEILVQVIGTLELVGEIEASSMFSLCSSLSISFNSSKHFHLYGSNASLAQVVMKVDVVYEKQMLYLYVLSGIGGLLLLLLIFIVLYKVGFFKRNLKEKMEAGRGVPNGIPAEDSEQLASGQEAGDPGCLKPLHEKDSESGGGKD
LFA-1 binding to ICAM-1, sequence (P05107 23-769): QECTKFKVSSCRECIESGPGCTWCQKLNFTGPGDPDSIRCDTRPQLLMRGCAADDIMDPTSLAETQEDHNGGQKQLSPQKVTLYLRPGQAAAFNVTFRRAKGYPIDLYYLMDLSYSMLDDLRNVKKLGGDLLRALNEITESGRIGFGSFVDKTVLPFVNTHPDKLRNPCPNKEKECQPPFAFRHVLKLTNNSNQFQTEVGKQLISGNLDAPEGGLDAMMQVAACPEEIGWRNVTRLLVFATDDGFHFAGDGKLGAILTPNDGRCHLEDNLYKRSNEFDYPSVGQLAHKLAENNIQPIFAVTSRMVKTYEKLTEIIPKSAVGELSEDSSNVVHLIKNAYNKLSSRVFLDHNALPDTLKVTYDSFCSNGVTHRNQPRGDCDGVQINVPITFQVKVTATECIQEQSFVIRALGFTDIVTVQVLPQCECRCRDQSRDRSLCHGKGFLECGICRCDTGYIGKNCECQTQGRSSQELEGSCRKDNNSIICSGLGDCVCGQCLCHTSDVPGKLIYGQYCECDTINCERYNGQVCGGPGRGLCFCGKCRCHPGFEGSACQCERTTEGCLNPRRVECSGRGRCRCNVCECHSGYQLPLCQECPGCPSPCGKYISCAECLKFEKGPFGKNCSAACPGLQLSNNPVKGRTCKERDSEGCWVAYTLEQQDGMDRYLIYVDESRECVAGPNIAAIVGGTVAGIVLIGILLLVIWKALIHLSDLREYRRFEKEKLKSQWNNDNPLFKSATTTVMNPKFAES
This assay protocol is designed to study the direct antagonism, by a test compound, of the interaction of ICAM-1 with the Leukointegrin CD18/CD11a (LFA-1).
The LFA-1/Biotin-sICAM-1 molecular assay measures the ability of test compounds to inhibit binding of LFA-1 to Biotinylated-sICAM using AlphaScreen technology (Ref: Wilson, J, Rossi, C P, Carboni, S, Fremaux, C, Perrin, D, Soto, C, Kosco-Vilbois, M, and Scheer, A: A Homogeneous 384-Well High-Throughput Binding Assay for a TNF Receptor Using Alphascreen Technology. J Biomol Screen 2003; 8:522-532) that uses TS2/4(anti-LFA-1)-custom conjugated AlphaLisa acceptor beads and streptavidin-coated donor beads from PerkinElmer. The assay was performed in white OptiPlates-384 in a volume of 60 μL using assay buffer (Dulbecco's PBS containing calcium and magnesium, 2 mM MgCl2, 0.1 mM PMSF, 0.1% BSA, pH 7.1). To each well, Biotin-sICAM was added followed by purified LFA-1 (in buffer of 50 mM triethylamine, 150 mM NaCl, 1% beta octylglucoside, 2 mM MgCl2 neutralized to pH with 1M Tris-HCl, pH 7.5). For compound testing, compound was added in 5 uL to the above in 25 uL. LFA-1 and Biotin-sICAM-1 were used at concentrations that would yield a signal to background ratio of 8-10. The highest concentration of compound was 1 μM in 1% DMSO. Positive controls were wells without compound containing LFA-1, while blanks were wells without both compound and LFA-1. Plates were mixed and incubated at 37° C. for 90 minutes. This was followed by addition of 15 μL/well TS2/4-congugated acceptor beads diluted in PBS containing 0.1% BSA for a final concentration of 10 μg/mL. The plates were mixed and incubated in the dark for 30 minutes at room temperature followed by addition of 15 μL/well streptavidin-coated donor beads diluted in PBS containing 0.1% BSA at a final concentration of 15 μg/mL. The plates were mixed and incubated in the dark for 60 minutes at room temperature and then read on an EnVision Multilabel Reader using AlphaScreen 384-well OptiPlate protocol.
(In Alpha technology, singlet oxygen from a donor bead excites a nearby acceptor bead.)

Compound `C[C@@H](NC(=O)c1cccc(C2(NC(=O)C3(NC(=O)c4cnc5n4[C@](C)(Cc4ccc(C#N)cc4)C(=O)N5c4cc(Cl)cc(Cl)c4)CC3)CC2)n1)C(N)=O` [compound 83] gave an IC50 of 1.3 nM.

`C[C@@]1(Cc2ccc(C#N)cc2)C(=O)N(c2cc(Cl)cc(Cl)c2)c2ncc(C(=O)NC3(C(=O)NC4(c5ccc(C(=O)NCCO)cn5)CC4)CC3)n21` [compound 35] showed an IC50 of 0.39 nM. Against the preceding compound, the IC50 is about 3.3-fold lower.

For `C[C@@]1(Cc2ccc(C#N)cc2)C(=O)N(c2cc(Cl)cc(Cl)c2)c2ncc(C(=O)NC3(C(=O)NC4(c5ccc(C(=O)N6CCC[C@H]6C(N)=O)cn5)CC4)CC3)n21` [compound 8], the IC50 is 1.6 nM.

On to `C[C@@]1(Cc2ccc(C#N)cc2)C(=O)N(c2cc(Cl)cc(Cl)c2)c2ncc(C(=O)NC3(C(=O)NC4(c5ccc(C(=O)NCC6CC6)cn5)CC4)CC3)n21` [compound 13], for which the IC50 is 0.44 nM. Against the preceding compound, the IC50 is about 3.6-fold lower.

The compound `C[C@@]1(Cc2ccc(C#N)cc2)C(=O)N(c2cc(Cl)cc(Cl)c2)c2ncc(C(=O)NC3(C(=O)NC4(c5ccc(C(=O)N6CCCCC6CO)cn5)CC4)CC3)n21` (stereo partly drawn) [compound 137] registered an IC50 of 0.68 nM.

In turn, `C[C@@]1(Cc2ccc(C#N)cc2)C(=O)N(c2cc(Cl)cc(Cl)c2)c2ncc(C(=O)NC3(C(=O)NC4(c5cc(C(=O)N6CCCC6)ccn5)CC4)CC3)n21` [compound 135] returned an IC50 of 0.79 nM.

Regarding `C[C@@]1(Cc2ccc(C#N)cc2)C(=O)N(c2cc(Cl)cc(Cl)c2)c2ncc(C(=O)NC3(C(=O)NC4(c5cc(C(=O)N6CCC[C@@H]6C(N)=O)ccn5)CC4)CC3)n21` [compound 115], the IC50 was found to be 0.33 nM.

`C[C@@]1(Cc2ccc(C#N)cc2)C(=O)N(c2cc(Cl)cc(Cl)c2)c2ncc(C(=O)NC3(C(=O)NC4(c5cc(C(=O)NCc6ccco6)ccn5)CC4)CC3)n21` [compound 76] came in with an IC50 of 0.79 nM.

As for `C[C@@]1(Cc2ccc(C#N)cc2)C(=O)N(c2cc(Cl)cc(Cl)c2)c2ncc(C(=O)NC3(C(=O)NC4(c5cccc(C(=O)NCc6ccncc6)n5)CC4)CC3)n21` [compound 26], the IC50 worked out at 5.2 nM.

With `CN(C)C1CCN(C(=O)c2ccc(C3(NC(=O)C4(NC(=O)c5cnc6n5[C@](C)(Cc5ccc(C#N)cc5)C(=O)N6c5cc(Cl)cc(Cl)c5)CC4)CC3)nc2)C1` (stereo partly drawn) [compound 61], the IC50 was found to be 1.8 nM. This IC50 is about 2.9-fold lower than that of the compound before.

`CNC(=O)c1ccc(C2(NC(=O)C3(NC(=O)c4cnc5n4[C@](C)(Cc4ccc(C#N)cc4)C(=O)N5c4cc(Cl)cc(Cl)c4)CC3)CC2)nc1` [compound 140] gave an IC50 of 1.5 nM.

As to `C[C@@]1(Cc2ccc(C#N)cc2)C(=O)N(c2cc(Cl)cc(Cl)c2)c2ncc(C(=O)NC3(C(=O)NC4(c5cccc(C(=O)NCC(N)=O)n5)CC4)CC3)n21` [compound 127], the IC50 stood at 0.5 nM.

Compound `CN(C)C(=O)c1ccnc(C2(NC(=O)C3(NC(=O)c4cnc5n4[C@](C)(Cc4ccc(C#N)cc4)C(=O)N5c4cc(Cl)cc(Cl)c4)CC3)CC2)c1` [compound 38] came in with an IC50 of 0.87 nM.

In turn, `C[C@@H](NC(=O)c1ccc(C2(NC(=O)C3(NC(=O)c4cnc5n4[C@](C)(Cc4ccc(C#N)cc4)C(=O)N5c4cc(Cl)cc(Cl)c4)CC3)CC2)nc1)c1ccccc1` [compound 65] registered an IC50 of 2.1 nM. This IC50 is about 2.4-fold higher than that of the compound before.

In the case of `CC(NC(=O)c1cccc(C2(NC(=O)C3(NC(=O)c4cnc5n4[C@](C)(Cc4ccc(C#N)cc4)C(=O)N5c4cc(Cl)cc(Cl)c4)CC3)CC2)n1)c1cccnc1` (stereo partly drawn) [compound 47], the IC50 stood at 3.9 nM.

On to `C[C@@]1(Cc2ccc(C#N)cc2)C(=O)N(c2cc(Cl)cc(Cl)c2)c2ncc(C(=O)NC3(C(=O)NC4(c5cc(C(=O)N6CCN(S(C)(=O)=O)CC6)ccn5)CC4)CC3)n21` [compound 89], for which the IC50 came to 1.4 nM.

On to `CN(C)C1CCN(C(=O)c2cccc(C3(NC(=O)C4(NC(=O)c5cnc6n5[C@](C)(Cc5ccc(C#N)cc5)C(=O)N6c5cc(Cl)cc(Cl)c5)CC4)CC3)n2)C1` (stereo partly drawn) [compound 111], for which the IC50 turned out to be 2.5 nM.

Turning to `C[C@@]1(Cc2ccc(C#N)cc2)C(=O)N(c2cc(Cl)cc(Cl)c2)c2ncc(C(=O)NC3(C(=O)NC4(c5cccc(C(=O)N6CCCC(CO)C6)n5)CC4)CC3)n21` (stereo partly drawn) [compound 161], the IC50 came out at 0.75 nM. This IC50 is about 3.3-fold lower than that of the compound before.

In turn, `CC(CO)NC(=O)c1ccc(C2(NC(=O)C3(NC(=O)c4cnc5n4[C@](C)(Cc4ccc(C#N)cc4)C(=O)N5c4cc(Cl)cc(Cl)c4)CC3)CC2)nc1` (stereo partly drawn) [compound 27] registered an IC50 of 0.74 nM.

`C[C@@]1(Cc2ccc(C#N)cc2)C(=O)N(c2cc(Cl)cc(Cl)c2)c2ncc(C(=O)NC3(C(=O)NC4(c5ccc(C(=O)NCc6ccco6)cn5)CC4)CC3)n21` [compound 3] displayed an IC50 of 0.29 nM.

`C[C@@]1(Cc2ccc(C#N)cc2)C(=O)N(c2cc(Cl)cc(Cl)c2)c2ncc(C(=O)NC3(C(=O)NC4(c5cccc(C(=O)N6CC(O)C6)n5)CC4)CC3)n21` [compound 51] returned an IC50 of 0.58 nM.

As to `C[C@@]1(Cc2ccc(C#N)cc2)C(=O)N(c2cc(Cl)cc(Cl)c2)c2ncc(C(=O)NC3(C(=O)NC4(c5ccc(C(=O)NCC(O)CO)cn5)CC4)CC3)n21` (stereo partly drawn) [compound 133], the IC50 was found to be 1.4 nM.

In turn, `C[C@@]1(Cc2ccc(C#N)cc2)C(=O)N(c2cc(Cl)cc(Cl)c2)c2ncc(C(=O)NC3(C(=O)NC4(c5ccc(C(=O)NCCN)cn5)CC4)CC3)n21` [compound 78] had an IC50 of 0.68 nM.

As to `C[C@@]1(Cc2ccc(C#N)cc2)C(=O)N(c2cc(Cl)cc(Cl)c2)c2ncc(C(=O)NC3(C(=O)NC4(c5cc(C(=O)NCc6ccccn6)ccn5)CC4)CC3)n21` [compound 79], the IC50 was 0.67 nM.

`CC(C)(NC(=O)c1cccc(C2(NC(=O)C3(NC(=O)c4cnc5n4[C@](C)(Cc4ccc(C#N)cc4)C(=O)N5c4cc(Cl)cc(Cl)c4)CC3)CC2)n1)c1ccccc1` [compound 167]: the IC50 stood at 0.41 nM.

Consider `CN1CCN(C(=O)c2cccc(C3(NC(=O)C4(NC(=O)c5cnc6n5[C@](C)(Cc5ccc(C#N)cc5)C(=O)N6c5cc(Cl)cc(Cl)c5)CC4)CC3)n2)CC1` [compound 157], for which the IC50 stood at 0.52 nM.

`CN(C)CCNC(=O)c1ccc(C2(NC(=O)C3(NC(=O)c4cnc5n4[C@](C)(Cc4ccc(C#N)cc4)C(=O)N5c4cc(Cl)cc(Cl)c4)CC3)CC2)nc1` [compound 106]: the 50% inhibitory concentration (IC50) came out at 0.82 nM.

In turn, `CNC(=O)c1ccnc(C2(NC(=O)C3(NC(=O)c4cnc5n4[C@](C)(Cc4ccc(C#N)cc4)C(=O)N5c4cc(Cl)cc(Cl)c4)CC3)CC2)c1` [compound 31] had a half-maximal inhibitory concentration (IC50) of 0.67 nM. The IC50 values of the last two compounds are within 1.5-fold of each other.

The compound `C[C@@]1(Cc2ccc(C#N)cc2)C(=O)N(c2cc(Cl)cc(Cl)c2)c2ncc(C(=O)NC3(C(=O)NC4(c5cc(C(=O)NCC(=O)O)ccn5)CC4)CC3)n21` [compound 131] gave an IC50 of 0.45 nM. The IC50 values of the last two compounds are within 1.5-fold of each other.

Regarding `COCCNC(=O)c1ccc(C2(NC(=O)C3(NC(=O)c4cnc5n4[C@](C)(Cc4ccc(C#N)cc4)C(=O)N5c4cc(Cl)cc(Cl)c4)CC3)CC2)nc1` [compound 41], the IC50 was found to be 0.14 nM.

In the case of `C[C@@]1(Cc2ccc(OC(F)(F)F)cc2)C(=O)N(c2cc(Cl)cc(Cl)c2)c2ncc(C(=O)NC3(C(=O)NC4(c5ccc(C(N)=O)cn5)CC4)CC3)n21` [compound 94], the IC50 came out at 1.5 nM.

Compound `C[C@@]1(Cc2ccc(C#N)cc2)C(=O)N(c2cc(Cl)cc(Cl)c2)c2ncc(C(=O)NC3(C(=O)NC4(c5cc(C(=O)N6CCOCC6)ccn5)CC4)CC3)n21` [compound 58] had an IC50 of 0.7 nM.

The compound `C[C@@]1(Cc2ccc(C#N)cc2)C(=O)N(c2cc(Cl)cc(Cl)c2)c2ncc(C(=O)NC3(C(=O)NC4(c5cccc(C(=O)N6CCCC6)n5)CC4)CC3)n21` [compound 11] had an IC50 of 3.4 nM.

Compound `C[C@@]1(Cc2ccc(C#N)cc2)C(=O)N(c2cc(Cl)cc(Cl)c2)c2ncc(C(=O)NC3(C(=O)NC4(c5ccc(C(=O)N6CCC(C(N)=O)CC6)cn5)CC4)CC3)n21` [compound 147] registered an IC50 of 1.9 nM.

The compound `C[C@@H](NC(=O)c1cccc(C2(NC(=O)C3(NC(=O)c4cnc5n4[C@](C)(Cc4ccc(C#N)cc4)C(=O)N5c4cc(Cl)cc(Cl)c4)CC3)CC2)n1)c1ccccc1` [compound 118] came in with an IC50 of 33 nM. This IC50 is about 17-fold higher than that of the compound before.

`C[C@@]1(Cc2ccc(C#N)cc2)C(=O)N(c2cc(Cl)cc(Cl)c2)c2ncc(C(=O)NC3(C(=O)NC4(c5cc(C(=O)NCCc6ccncc6)ccn5)CC4)CC3)n21` [compound 144] displayed an IC50 of 0.34 nM. Against the preceding compound, the IC50 is about 97-fold lower.

As for `COCCNC(=O)c1ccnc(C2(NC(=O)C3(NC(=O)c4cnc5n4[C@](C)(Cc4ccc(C#N)cc4)C(=O)N5c4cc(Cl)cc(Cl)c4)CC3)CC2)c1` [compound 100], the IC50 stood at 0.9 nM. Compared with the last compound, the IC50 is about 2.6-fold higher.

The compound `C[C@@]1(Cc2ccc(C#N)cc2)C(=O)N(c2cc(Cl)cc(Cl)c2)c2ncc(C(=O)NC3(C(=O)NC4(c5cccc(C(=O)N6CC[C@H](O)C6)n5)CC4)CC3)n21` [compound 143] gave an IC50 of 0.53 nM.

On to `C[C@@]1(Cc2ccc(C#N)cc2)C(=O)N(c2cc(Cl)cc(Cl)c2)c2ncc(C(=O)NC3(C(=O)NC4(c5cc(C(=O)N6CCC[C@H]6C(N)=O)ccn5)CC4)CC3)n21` [compound 122], for which the IC50 was found to be 1.7 nM.
